# Reference: patent US5288720A, “Angiotensin II receptor blocking 2,3,6 substituted quinazolinones” (American Cyanamid Company, priority 1993, dated 1994)
# System: ANGIOTENSIN II VASOPRESSOR RESPONSE
# Test: AII Challenge: blockade of angiotensin II vasopressor response in conscious SHR
# Format: in vivo, rat (Conscious Male Okamoto-Aoki SHR)
# Conditions: SHR n=2
# Method in brief: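 Conscious male Okamoto-Aoki SHR (16-20 weeks, ~330 g) cannulated in aorta and vena cava under local procaine; angiotensin II (human) 0.05 and 0.1 ug/kg i.v. given before and at 30-300 min after test compound i.v., i.p. or orally. Rise in systolic pressure (mmHg) expressed as % blockade versus each rat's predose response.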
# [1] = 3 mg/kg i.v., AII 0.05 mcg/kg IV, 30 min post dose
# [2] = 3 mg/kg i.v., AII 0.05 mcg/kg IV, 60 min post dose
# [3] = 3 mg/kg i.v., AII 0.05 mcg/kg IV, 90 min post dose
# [4] = 3 mg/kg i.v., AII 0.05 mcg/kg IV, 120 min post dose
# [5] = 3 mg/kg i.v., AII 0.05 mcg/kg IV, 180 min post dose
# [6] = 3 mg/kg i.v., AII 0.05 mcg/kg IV, 240 min post dose
# [7] = 3 mg/kg i.v., AII 0.05 mcg/kg IV, 300 min post dose
# [8] = 3 mg/kg i.v., AII 0.1 mcg/kg IV, 30 min post dose
# [9] = 3 mg/kg i.v., AII 0.1 mcg/kg IV, 60 min post dose
# [10] = 3 mg/kg i.v., AII 0.1 mcg/kg IV, 90 min post dose
# [11] = 3 mg/kg i.v., AII 0.1 mcg/kg IV, 120 min post dose
# [12] = 3 mg/kg i.v., AII 0.1 mcg/kg IV, 180 min post dose
# [13] = 3 mg/kg i.v., AII 0.1 mcg/kg IV, 240 min post dose
# [14] = 3 mg/kg i.v., AII 0.1 mcg/kg IV, 300 min post dose
# [15] = 3 mg/kg p.o., AII 0.05 mcg/kg IV, 30 min post dose
# [16] = 3 mg/kg p.o., AII 0.05 mcg/kg IV, 60 min post dose
# [17] = 3 mg/kg p.o., AII 0.05 mcg/kg IV, 90 min post dose
# [18] = 3 mg/kg p.o., AII 0.05 mcg/kg IV, 120 min post dose
# [19] = 3 mg/kg p.o., AII 0.05 mcg/kg IV, 180 min post dose
# [20] = 3 mg/kg p.o., AII 0.1 mcg/kg IV, 30 min post dose
# [21] = 3 mg/kg p.o., AII 0.1 mcg/kg IV, 60 min post dose
# [22] = 3 mg/kg p.o., AII 0.1 mcg/kg IV, 90 min post dose
# [23] = 3 mg/kg p.o., AII 0.1 mcg/kg IV, 120 min post dose
# [24] = 3 mg/kg p.o., AII 0.1 mcg/kg IV, 180 min post dose
# [25] = 10 mg/kg p.o., AII 0.05 mcg/kg IV, 30 min post dose
# [26] = 10 mg/kg p.o., AII 0.05 mcg/kg IV, 60 min post dose
# [27] = 10 mg/kg p.o., AII 0.05 mcg/kg IV, 90 min post dose
# [28] = 10 mg/kg p.o., AII 0.05 mcg/kg IV, 120 min post dose
# [29] = 10 mg/kg p.o., AII 0.05 mcg/kg IV, 180 min post dose
# [30] = 10 mg/kg p.o., AII 0.05 mcg/kg IV, 240 min post dose
# [31] = 10 mg/kg p.o., AII 0.05 mcg/kg IV, 300 min post dose
# [32] = 10 mg/kg p.o., AII 0.1 mcg/kg IV, 30 min post dose
# [33] = 10 mg/kg p.o., AII 0.1 mcg/kg IV, 60 min post dose
# [34] = 10 mg/kg p.o., AII 0.1 mcg/kg IV, 90 min post dose
# [35] = 10 mg/kg p.o., AII 0.1 mcg/kg IV, 120 min post dose
# [36] = 10 mg/kg p.o., AII 0.1 mcg/kg IV, 180 min post dose
# [37] = 10 mg/kg p.o., AII 0.1 mcg/kg IV, 240 min post dose
# [38] = 10 mg/kg p.o., AII 0.1 mcg/kg IV, 300 min post dose
structure (smiles),measurement,setting,value
"CCCCc1nc2ccc(C(O)C3CCCN(C)C3=O)cc2c(=O)n1Cc1ccc(-c2ccccc2-c2nn[nH]n2)cc1 (single isomer, unassigned; isomer 1) [Example 37, 2-Butyl-6-hydroxy(1-methyl-2-oxo-3-piperidinyl)methyl]-3-[[2'-(1H-tetrazol-5-yl)[1,1'-biphenyl]-4-yl]methyl]-4(3H)-quinazolinone isomer 1]",% Inhibition of AII vasopressor response,[1],100%
same,Average Change (systolic blood pressure response to AII),[1],0 mmHg
same,% Inhibition of AII vasopressor response,[2],100%
same,Average Change (systolic blood pressure response to AII),[2],0 mmHg
same,% Inhibition of AII vasopressor response,[3],100%
same,Average Change (systolic blood pressure response to AII),[3],0 mmHg
same,% Inhibition of AII vasopressor response,[4],91%
same,Average Change (systolic blood pressure response to AII),[4],2.5 mmHg
same,% Inhibition of AII vasopressor response,[5],55%
same,Average Change (systolic blood pressure response to AII),[5],12.5 mmHg
same,% Inhibition of AII vasopressor response,[6],64%
same,Average Change (systolic blood pressure response to AII),[6],10 mmHg
same,% Inhibition of AII vasopressor response,[7],36%
same,Average Change (systolic blood pressure response to AII),[7],17.5 mmHg
same,% Inhibition of AII vasopressor response,[8],92%
same,Average Change (systolic blood pressure response to AII),[8],2.5 mmHg
same,% Inhibition of AII vasopressor response,[9],92%
same,Average Change (systolic blood pressure response to AII),[9],2.5 mmHg
same,% Inhibition of AII vasopressor response,[10],85%
same,Average Change (systolic blood pressure response to AII),[10],5 mmHg
same,% Inhibition of AII vasopressor response,[11],85%
same,Average Change (systolic blood pressure response to AII),[11],5 mmHg
same,% Inhibition of AII vasopressor response,[12],66%
same,Average Change (systolic blood pressure response to AII),[12],11 mmHg
same,% Inhibition of AII vasopressor response,[13],23%
same,Average Change (systolic blood pressure response to AII),[13],25 mmHg
same,% Inhibition of AII vasopressor response,[14],0%
same,Average Change (systolic blood pressure response to AII),[14],32.5 mmHg
same,% Inhibition of AII vasopressor response,[15],53%
same,Average Change (systolic blood pressure response to AII),[15],19 mmHg
same,% Inhibition of AII vasopressor response,[16],29%
same,Average Change (systolic blood pressure response to AII),[16],28.5 mmHg
same,% Inhibition of AII vasopressor response,[17],29%
same,Average Change (systolic blood pressure response to AII),[17],28.5 mmHg
same,% Inhibition of AII vasopressor response,[18],13%
same,Average Change (systolic blood pressure response to AII),[18],35 mmHg
same,% Inhibition of AII vasopressor response,[19],0%
same,Average Change (systolic blood pressure response to AII),[19],40 mmHg
same,% Inhibition of AII vasopressor response,[20],-6%
same,Average Change (systolic blood pressure response to AII),[20],47.5 mmHg
same,% Inhibition of AII vasopressor response,[21],30%
same,Average Change (systolic blood pressure response to AII),[21],31.5 mmHg
same,% Inhibition of AII vasopressor response,[22],11%
same,Average Change (systolic blood pressure response to AII),[22],40 mmHg
same,% Inhibition of AII vasopressor response,[23],22%
same,Average Change (systolic blood pressure response to AII),[23],35 mmHg
same,% Inhibition of AII vasopressor response,[24],22%
same,Average Change (systolic blood pressure response to AII),[24],35 mmHg
same,% Inhibition of AII vasopressor response,[25],67%
same,Average Change (systolic blood pressure response to AII),[25],17.5 mmHg
same,% Inhibition of AII vasopressor response,[26],65%
same,Average Change (systolic blood pressure response to AII),[26],18.5 mmHg
same,% Inhibition of AII vasopressor response,[27],62%
same,Average Change (systolic blood pressure response to AII),[27],20 mmHg
same,% Inhibition of AII vasopressor response,[28],67%
same,Average Change (systolic blood pressure response to AII),[28],17.5 mmHg
same,% Inhibition of AII vasopressor response,[29],57%
same,Average Change (systolic blood pressure response to AII),[29],22.5 mmHg
same,% Inhibition of AII vasopressor response,[30],43%
same,Average Change (systolic blood pressure response to AII),[30],30 mmHg
same,% Inhibition of AII vasopressor response,[31],52%
same,Average Change (systolic blood pressure response to AII),[31],25 mmHg
same,% Inhibition of AII vasopressor response,[32],40%
same,Average Change (systolic blood pressure response to AII),[32],30 mmHg
same,% Inhibition of AII vasopressor response,[33],26%
same,Average Change (systolic blood pressure response to AII),[33],37 mmHg
same,% Inhibition of AII vasopressor response,[34],40%
same,Average Change (systolic blood pressure response to AII),[34],30 mmHg
same,% Inhibition of AII vasopressor response,[35],55%
same,Average Change (systolic blood pressure response to AII),[35],22.5 mmHg
same,% Inhibition of AII vasopressor response,[36],35%
same,Average Change (systolic blood pressure response to AII),[36],32.5 mmHg
same,% Inhibition of AII vasopressor response,[37],40%
same,Average Change (systolic blood pressure response to AII),[37],30 mmHg
same,% Inhibition of AII vasopressor response,[38],35%
same,Average Change (systolic blood pressure response to AII),[38],32.5 mmHg
